{"source": "PubChem BioAssay AID2060491", "about": "(Molecular Pharmacology Branch, DTP, NCI, 2025)", "test_system": "857933-349-R-J2-PDC complex spheroids, viability", "assay": "Anticancer human tumor 857933-349-R-J2-PDC patient-derived colon adenocarcinoma cell line growth inhibition [GQUAD]", "conditions": "for viability, T/C: stronger effect = lower value", "from_the_text": "DNA G-quadruplex Stabilizer Agents in Combinations in Complex Spheroids\nA high-throughput screen of multi-cell type tumor spheroids was designed to identify active combinations of DNA G-quadruplex stabilizer agents and targeted small molecules. Complex spheroids include a stromal component modeled by human endothelial cells (HUVEC) and fibroblasts modeled by human mesenchymal stem cells (MSCs). The concentration ranges selected for each drug and investigational agent were based upon clinically achievable concentrations if the clinical Cmax of the agent was known.\nCompounds. The drugs and investigational agents: pidnarulex (CX-5461; NSC782164), APTO-253 (NSC789042), BRACO-19 (NSC847499), peposertib (NSC802822), ceralasertib (NSC780249), elimusertib (NSC800525), camonsertib (NSC841442), AZD-1390 (NSC803789), olaparib (NSC753686), talazoparib (NSC767125), ART-558 (NSC835418), sotorasib (NSC818433), MRTX-1133 (NSC836407), SN-38 (NSC673596), topotecan (NSC609699), etoposide (NSC141540), doxorubicin (NSC123127), gemcitabine (NSC613327), 5-fluorouracil (NSC19893), paclitaxel (NSC125973), vemurafenib (NSC761431), panobinostat (NSC761190), R-306465 (JNJ-16241199; NSC773264), adavosertib (NSC754352), TP-3654 (NSC805149), carboplatin (NSC241240), KSQ-4279 (NSC840948), and staurosporine (NSC755774) were obtained from the National Cancer Institute (NCI) Developmental Therapeutics Program Chemical Repository (34). The FDA-approved anticancer drug set is available from the NCI Developmental Therapeutics Program. […] The stock solutions were prepared in dimethyl sulfoxide (DMSO, Sigma-Aldrich, St. Louis, MO, cat. D2650) at 800-fold the tested concentration and stored at -70 degrees C prior to their use. All drugs and investigational agents were tested over a range starting from a high concentration at or near the clinical Cmax and decreasing in half-log increments. If the clinical Cmax for an agent had not been determined, the highest concentration tested was 10 microM.\n2.3 Cell Culture. All cells were maintained in an incubator at 37 degrees C and 5% CO2 with 95% humidity. The PDC lines were cultured according to standard operating procedures established by the NCI PDMR. All PDCs were thawed and cultured in Matrigel-coated flasks prepared with a working solution of 1X Ham's F-12 nutrient mix, without supplementation (Invitrogen, cat. 11765054), 100 U/mL penicillin-streptomycin (Invitrogen, cat. 15140122), and 2.5% Matrigel (Corning Inc., cat. 354248) for the first three passages. The 857933-349-R-J2-PDC line was cultured in 6C/Colon 1B media, which includes advanced DMEM/F-12 (Thermo Fisher Scientific, cat. 12634028), 10 mM HEPES (Thermo Fisher Scientific, cat. 15630080), 1X GlutaMAX supplement (Thermo Fisher Scientific, cat. 35050061), 0.1 mg/mL primocin (InvivoGen, cat. ant-pm-2), 10% defined fetal bovine serum, heat inactivated (HyClone Laboratories Inc., cat. SH30070.03HI), 50% L-WRN conditioned media (ATCC, cat. CRL-3276), 1.25 mM N-Acetyl-L-cysteine (Sigma-Aldrich, cat. A9165), 10 mM nicotinamide (Sigma-Aldrich, cat. N0636), 1X B-27 supplement (Thermo Fisher Scientific, cat. 17504044), 1X N-2 supplement (Thermo Fisher Scientific, cat. 17502048), 10 microM Y-27632 dihydrochloride (Tocris Bioscience, cat. 1254), and 50 ng/mL human EGF recombinant protein (Thermo Fisher Scientific, cat. PHG0311). The 485176-168-R4-J1-PDC line was cultured in Panc media, which includes all 6C/Colon 1B media components plus 100 ng/mL human FGF-10 (Thermo Fisher Scientific, cat. 100-26), 500 nM SB-431542 (Selleckchem, cat. S1067), and gastrin (Tocris, cat. 3006).\n[…]", "note": "“And” between values parts separate entries of the source, which are not always exact repeats. Identical values can stand only once."}
{"compound": "Cn1ncnc1[C@H]1c2n[nH]c(=O)c3cc(F)cc(c23)N[C@@H]1c1ccc(F)cc1", "note": "+ Cc1[nH]c2ccc(F)cc2c1-c1nc2c3cccnc3c3ncccc3c2[nH]1;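 also: spheroids exposed to compounds for one week before readout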;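 as to viability, T/C: percent viability relative to vehicle DMSO wells taken as 100%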", "values": [{"measurement": "IC50", "setting": "curve of first compound, second compound 0.0316 µM", "value": "> 316", "unit": "nM"}, {"measurement": "IC50", "setting": "curve of first compound, second compound 0.1 µM", "value": "> 316", "unit": "nM"}, {"measurement": "IC50", "setting": "curve of first compound, second compound 0.316 µM", "value": "> 316", "unit": "nM"}, {"measurement": "IC50", "setting": "curve of first compound, second compound 1 µM", "value": "> 316", "unit": "nM"}, {"measurement": "IC50", "setting": "curve of first compound, second compound 3.16 µM", "value": "> 316", "unit": "nM"}, {"measurement": "IC50", "setting": "curve of first compound, second compound 10 µM", "value": "> 316", "unit": "nM"}, {"measurement": "viability, T/C", "setting": "second compound 0.0316 µM, first compound 0.000999 µM", "value": 104, "unit": "%"}, {"measurement": "viability, T/C", "setting": "second compound 0.0316 µM, first compound 0.00316 µM", "value": 86, "unit": "%"}, {"measurement": "viability, T/C", "setting": "second compound 0.0316 µM, first compound 0.00999 µM", "value": 103, "unit": "%"}, {"measurement": "viability, T/C", "setting": "second compound 0.0316 µM, first compound 0.0316 µM", "value": 89.7, "unit": "%"}, {"measurement": "viability, T/C", "setting": "second compound 0.0316 µM, first compound 0.0999 µM", "value": 106, "unit": "%"}, {"measurement": "viability, T/C", "setting": "second compound 0.0316 µM, first compound 0.316 µM", "value": 109, "unit": "%"}, {"measurement": "viability, T/C", "setting": "second compound 0.1 µM, first compound 0.000999 µM", "value": 95.8, "unit": "%"}, {"measurement": "viability, T/C", "setting": "second compound 0.1 µM, first compound 0.00316 µM", "value": 105, "unit": "%"}, {"measurement": "viability, T/C", "setting": "second compound 0.1 µM, first compound 0.00999 µM", "value": 98, "unit": "%"}, {"measurement": "viability, T/C", "setting": "second compound 0.1 µM, first compound 0.0316 µM", "value": 92.7, "unit": "%"}, {"measurement": "viability, T/C", "setting": "second compound 0.1 µM, first compound 0.0999 µM", "value": 102, "unit": "%"}, {"measurement": "viability, T/C", "setting": "second compound 0.1 µM, first compound 0.316 µM", "value": 104, "unit": "%"}, {"measurement": "viability, T/C", "setting": "second compound 0.316 µM, first compound 0.000999 µM", "value": 97.3, "unit": "%"}, {"measurement": "viability, T/C", "setting": "second compound 0.316 µM, first compound 0.00316 µM", "value": 112, "unit": "%"}, {"measurement": "viability, T/C", "setting": "second compound 0.316 µM, first compound 0.00999 µM", "value": 97, "unit": "%"}, {"measurement": "viability, T/C", "setting": "second compound 0.316 µM, first compound 0.0316 µM", "value": 104, "unit": "%"}, {"measurement": "viability, T/C", "setting": "second compound 0.316 µM, first compound 0.0999 µM", "value": 102, "unit": "%"}, {"measurement": "viability, T/C", "setting": "second compound 0.316 µM, first compound 0.316 µM", "value": 98.6, "unit": "%"}, {"measurement": "viability, T/C", "setting": "second compound 1 µM, first compound 0.000999 µM", "value": 96.1, "unit": "%"}, {"measurement": "viability, T/C", "setting": "second compound 1 µM, first compound 0.00316 µM", "value": 101, "unit": "%"}, {"measurement": "viability, T/C", "setting": "second compound 1 µM, first compound 0.00999 µM", "value": 97.4, "unit": "%"}, {"measurement": "viability, T/C", "setting": "second compound 1 µM, first compound 0.0316 µM", "value": 95.8, "unit": "%"}, {"measurement": "viability, T/C", "setting": "second compound 1 µM, first compound 0.0999 µM", "value": 104, "unit": "%"}, {"measurement": "viability, T/C", "setting": "second compound 1 µM, first compound 0.316 µM", "value": 94.8, "unit": "%"}, {"measurement": "viability, T/C", "setting": "second compound 3.16 µM, first compound 0.000999 µM", "value": 92.2, "unit": "%"}, {"measurement": "viability, T/C", "setting": "second compound 3.16 µM, first compound 0.00316 µM", "value": 101, "unit": "%"}, {"measurement": "viability, T/C", "setting": "second compound 3.16 µM, first compound 0.00999 µM", "value": 91.9, "unit": "%"}, {"measurement": "viability, T/C", "setting": "second compound 3.16 µM, first compound 0.0316 µM", "value": 103, "unit": "%"}, {"measurement": "viability, T/C", "setting": "second compound 3.16 µM, first compound 0.0999 µM", "value": 114, "unit": "%"}, {"measurement": "viability, T/C", "setting": "second compound 3.16 µM, first compound 0.316 µM", "value": 96.9, "unit": "%"}, {"measurement": "viability, T/C", "setting": "second compound 10 µM, first compound 0.000999 µM", "value": 102, "unit": "%"}, {"measurement": "viability, T/C", "setting": "second compound 10 µM, first compound 0.00316 µM", "value": 99.3, "unit": "%"}, {"measurement": "viability, T/C", "setting": "second compound 10 µM, first compound 0.00999 µM", "value": 97.1, "unit": "%"}, {"measurement": "viability, T/C", "setting": "second compound 10 µM, first compound 0.0316 µM", "value": 99.2, "unit": "%"}, {"measurement": "viability, T/C", "setting": "second compound 10 µM, first compound 0.0999 µM", "value": 104, "unit": "%"}, {"measurement": "viability, T/C", "setting": "second compound 10 µM, first compound 0.316 µM", "value": 94.6, "unit": "%"}]}
{"compound": "CCc1c2c(nc3ccc(O)cc13)-c1cc3c(c(=O)n1C2)COC(=O)[C@]3(O)CC", "values": [{"measurement": "viability, T/C", "setting": "compound 0.000999 µM", "value": "85.5% and 93.5% and 77.5%"}, {"measurement": "viability, T/C", "setting": "compound 0.00316 µM", "value": "48.9% and 84.5% and 50.1%"}, {"measurement": "viability, T/C", "setting": "compound 0.00999 µM", "value": "50% and 57.4% and 48.4%"}, {"measurement": "viability, T/C", "setting": "compound 0.0316 µM", "value": "28% and 35.3% and 21.5%"}, {"measurement": "viability, T/C", "setting": "compound 0.0999 µM", "value": "15.3% and 20.7% and 13%"}, {"measurement": "viability, T/C", "setting": "compound 0.316 µM", "value": "11.9% and 6.62% and 10.2%"}, {"measurement": "IC50", "setting": "curve of compound", "value": "5.62 nM and 16 nM and 4.84 nM"}]}
